From BindingDB's records for patent US20240246981 (Boehringer Ingelheim International, 2024)

How the values were obtained:
[1] = target: Glutaminyl-peptide cyclotransferase (Homo sapiens, UniProt Q16769); assay: Biochemical QPCT and QPCTL Activity Assay
Description: (§1) QPCT or QPCTL dependent conversion of N-terminal glutamine to pyroglutamate of CD47 was monitored via MALDI-TOF MS. Test compounds were dissolved in 100% DMSO and serially diluted into clear 1,536-well microtiter plates. Enzymatic reactions were set up in assay buffer containing 20 mM Tris pH 7.5, 0.1 mM TCEP, 0.01% BSA, and 0.001% Tween20. […] The plates were incubated for 10 min in a humidified incubator at 24° C. Subsequently, 2.5 μL of CD47 peptide substrate surrogate (19[…]33) was added to each well (final concentration: 10 μM for QPCTL/20 μM for QPCT). The plates were mixed for 30 sec at 1,000 rpm and subsequently incubated for 40 min in a humidified incubator at 24° C. […] The plates were sealed with an adhesive foil, mixed for 30 s at 1,000 rpm and stored at room temperature until preparation of the MALDI target plates. MALDI target plates were prepared as described previously.

[2] = target: Glutaminyl-peptide cyclotransferase-like protein (Homo sapiens, UniProt Q9NXS2); assay: Biochemical QPCT and QPCTL Activity Assay
Description: as §1

Chain of Glutaminyl-peptide cyclotransferase-like protein (Q9NXS2 whole entry): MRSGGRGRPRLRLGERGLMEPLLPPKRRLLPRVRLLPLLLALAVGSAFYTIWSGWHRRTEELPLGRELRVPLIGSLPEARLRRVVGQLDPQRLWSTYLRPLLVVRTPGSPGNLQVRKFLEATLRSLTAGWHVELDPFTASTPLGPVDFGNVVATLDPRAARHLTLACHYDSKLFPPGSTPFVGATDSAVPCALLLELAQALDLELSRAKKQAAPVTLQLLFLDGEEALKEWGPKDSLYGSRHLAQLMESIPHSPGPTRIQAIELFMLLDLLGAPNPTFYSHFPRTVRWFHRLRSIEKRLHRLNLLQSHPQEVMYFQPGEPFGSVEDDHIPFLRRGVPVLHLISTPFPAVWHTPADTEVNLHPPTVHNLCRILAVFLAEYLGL
Chain of Glutaminyl-peptide cyclotransferase (Q16769 whole entry): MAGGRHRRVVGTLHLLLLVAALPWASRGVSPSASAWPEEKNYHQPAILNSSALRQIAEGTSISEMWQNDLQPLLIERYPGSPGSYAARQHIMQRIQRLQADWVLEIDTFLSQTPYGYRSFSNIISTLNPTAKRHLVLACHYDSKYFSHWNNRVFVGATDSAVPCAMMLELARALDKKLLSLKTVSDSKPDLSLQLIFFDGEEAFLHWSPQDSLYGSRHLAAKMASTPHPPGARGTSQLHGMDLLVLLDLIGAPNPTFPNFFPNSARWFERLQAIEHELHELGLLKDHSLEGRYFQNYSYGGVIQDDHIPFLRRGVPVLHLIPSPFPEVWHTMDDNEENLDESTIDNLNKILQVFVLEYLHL

SMILES	IC50 [1]	IC50 [2]
Cn1cnnc1C1CCN(c2c(C#N)cccc2-c2cncc(-c3ccccc3)c2)CC1 [US20240246981, Example 21]	195 nM	50 nM
Cn1cnnc1C1CCN(c2c(C#N)cccc2-c2cncc(OC(F)F)c2)CC1 [US20240246981, Example 23]	162 nM	31 nM
Cn1cnnc1C1CCN(c2c(C#N)cccc2-c2cnc(F)c(OC3CCC3)c2)CC1 [US20240246981, Example 34]	6 nM	1 nM
Cn1cnnc1C1CCN(c2c(C#N)cccc2-c2cnc(F)c(OC(F)F)c2)CC1 [US20240246981, Example 37]	28 nM	8 nM
Cn1cnnc1C1CCN(c2c(C#N)cccc2-c2cnc(F)c(Oc3ccccc3)c2)CC1 [US20240246981, Example 38]		13 nM
Cn1cnnc1C1CCN(c2c(C#N)cccc2-c2cnc3nn(C)c(C(F)(F)F)c3c2)CC1 [US20240246981, Example 41]	9 nM	
Cn1cnnc1C1(F)CCN(c2c(C#N)cccc2-c2cnc3nn(CC(F)(F)F)cc3c2)CC1 [US20240246981, Example 55]		1 nM
Cn1cnnc1C1(F)CCN(c2c(C#N)cccc2-c2cnc(=O)n(C)c2)CC1 [US20240246981, Example 58]		1 nM
Cn1cnnc1C1(C)CCN(c2c(C#N)cccc2-c2cccnc2)CC1 [US20240246981, Example 65]	9 nM	26 nM
